Test results from patent publication US8524740B2, “Synthesis and anticancer activity of aryl and heteroaryl-quinolin derivatives” (Tairx, Inc., priority 2010, dated 2013).

Tests used:
Hep3B = test: MTT assay, Hep 3B cells; format: cell-based; conditions: Homo sapiens
Method in brief: (§1)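 Cells exposed to compounds for 48 h (other runs: indicated periods), then washed with PBS and given MTT for 2 h. Formazan dissolved in DMSO and read at 570 nm as a measure of cell growth.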

HL-60 = test: MTT assay, HL-60 cells; format: cell-based; conditions: Homo sapiens
Method in brief: as §1

H460 = test: MTT assay, H460 cells; format: cell-based; conditions: Homo sapiens, NCI-H460, MTT
Method in brief: (§2)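 H460 and Detroit 551 cells exposed to test compounds for 48 h (vehicle control); growth measured by MTT reduction, 2 h MTT incubation, formazan dissolved in DMSO, absorbance at 570 nm.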

Detroit 551 = test: MTT assay, Detroit 551 normal human cells; format: cell-based; conditions: Detroit 551, MTT
Method in brief: as §2

A498 = test: MTT assay, A498 cells; format: cell-based; conditions: Homo sapiens, Table 6
Protocol: (§3) MTT (3-(4,5-Dimethylthiazol-2-yl)-2,5-diphenyltetrazolium bromide) assays. HL-60, Hep 3B, H460, A498, Colo205 and Detroit 551 cells were treated with tested compounds for the indicated periods. After treatment, cells were washed once with PBS and incubated with MTT (Sigma, St. Louis, Mo., USA) for 2 h. The formazan precipitate was dissolved in 150 μL of DMSO, and the absorbance was measured with an ELISA reader at 570 nm.

Colo205 = test: MTT assay, Colo205 cells; format: cell-based; conditions: Homo sapiens, COLO 205, Table 6
Protocol: as §3

HCT116 = test: MTT assay, HCT-116 cells; format: cell-based; conditions: Homo sapiens
Protocol: as §3, with “assays.^21,22” for “assays.”, “HL-60, HCT-116,” for “HL-60,”, “H460,” for “H460, A498, Colo205 and”, “551 and HT29/FuR” for “551”
as §3, with “HL-60, HCT-116, A549,” for “HL-60,”, “KB, Kb-VIN” for “H460, A498, Colo205”, “DU145” for “Detroit 551”

A549 = test: MTT assay, A549 cells; format: cell-based; conditions: Homo sapiens, Table 5
Protocol: as §3, with “HL-60, HCT-116, A549,” for “HL-60,”, “KB, Kb-VIN” for “H460, A498, Colo205”, “DU145” for “Detroit 551”

Kb-VIN = test: MTT assay, Kb-VIN cells; format: cell-based; conditions: Homo sapiens, KBVIN, Table 5
Protocol: as §3, with “HL-60, HCT-116, A549,” for “HL-60,”, “KB, Kb-VIN” for “H460, A498, Colo205”, “DU145” for “Detroit 551”

KB = test: MTT assay, KB cells; format: cell-based; conditions: Homo sapiens, Table 5
Protocol: as §3, with “HL-60, HCT-116, A549,” for “HL-60,”, “KB, Kb-VIN” for “H460, A498, Colo205”, “DU145” for “Detroit 551”

DU145 = test: MTT assay, DU145 cells; format: cell-based; conditions: Homo sapiens, DU-145, Table 5
Protocol: as §3, with “HL-60, HCT-116, A549,” for “HL-60,”, “KB, Kb-VIN” for “H460, A498, Colo205”, “DU145” for “Detroit 551”

[1] = oral and intravenous administration (CHM-2133-P); cited from earlier work
[2] = previous report; cited from earlier work

SMILES	IC50 (Hep3B; Table 5, MTT) [nM]	IC50 (HL-60; Table 5, MTT) [nM]	IC50 (HCT116; Table 5) [nM]	IC50 (A549) [nM]	IC50 (Kb-VIN) [nM]	IC50 (KB) [nM]	IC50 (DU145) [nM]	antitumor activity in vivo (earlier work) [1]	further results
COc1cc(O)cc(-c2cc(=O)c3cc4c(cc3[nH]2)OCO4)c1 [Compound 166, 2-(3-Hydroxy-5-methoxyphenyl)-6,7-methylenedioxyquinolin-4-one]									IC50 (Hep3B; Table 6, MTT): > 50000 nM; IC50 (HL-60; Table 6, MTT): 400 nM; IC50 (H460; Table 6): > 50000 nM; IC50 (Detroit 551; Homo sapiens, Table 6): > 50000 nM; melting point: > 300 °C; IC50 (A498): > 50000 nM; IC50 (Colo205): > 50000 nM
O=c1cc(-c2coc3ccccc23)[nH]c2cc3c(cc12)OCO3 [Compound 156, 2-(3-Benzo[b]furyl)-6,7-methylenedioxyquinolin-4-one]	90	30	50	2980	590	1050	1870		
O=c1cc(-c2cccc3ccccc23)[nH]c2cc3c(cc12)OCO3 [Compound 151, 2-(1-Naphthalenyl)-6,7-methylenedioxyquinolin-4-one]	70	70	70	130	190	130	130		
O=P(O)(O)Oc1cc(-c2ccccc2F)nc2cc3c(cc12)OCO3 [CHM-2133-P]								excellent antitumor activity	bio-conversion following administration [2]: rapid bio-conversion into its active molecule CHM-2133
O=c1cc(-c2ccccc2F)[nH]c2cc3c(cc12)OCO3 [CHM-2133, 2-(2-fluorphenyl)-6,7-methylenedioxyquinolin-4-one, reference compound]								excellent antitumor activity	IC50 (Hep3B; Table 1, 48 h, MTT): 130 nM; IC50 (HL-60; Table 1, 48 h, MTT): 80 nM; IC50 (HCT116; Table 1, 48 h): 150 nM; IC50 (H460; Table 1, 48 h): 140 nM; IC50 (Detroit 551; Table 1, 48 h, normal human cell): 8200 nM
